Measured values: patent US20130059879A1, “Small Molecule Inhibitors of PFKFB3 and Glycolytic Flux and Their Methods of Use as Anti-Cancer Therapeutics” (UNIVERSITY OF LOUISVILLE RESEARCH FOUNDATION, INC., priority 2010, published 2013)
pIC50: −log10 of the molar value. Values after ≈ are worked out from the molar mass of the structure shown.

system: U937; assay: Cancer cell proliferation, Alamar Blue assay, 72 hours; format: cell-based; settings: Homo sapiens, U-937
Description: (§1) The ability of the compounds described herein to kill or inhibit the proliferation of cancer cells was measured using either the MTT assay, or the Alamar Blue assay, or the Cell Titer Glow® assay using 48 or 72 hours exposure. […] The procedures are briefly described below. Cells of the desired tumor cell line were plated at 2×10^5 cells/ml in 96 well plates. Twice the indicated concentrations of the compounds of the invention were added to cells the following day in an equal volume of media. 72 hours later, cells were lysed and subjected to ATP determination using the CellTiter Glo-Luminescent Cell Viability Assay kit (Promega, Madison, Wis.). Experiments were done in triplicate. When using the MTT assay or the Alamar blue assay, the experimental conditions are essentially similar; at the end of the incubation period, 20 microliters of the MTT solution is added per well and the samples are incubated for an additional four hours, rinsed, and the absorbance at 570 nm measured. […] Table 2 lists the IC50 values for the compounds of the invention in several cell lines including Jurkat, Calu-6, NCI-H82, U937, HCT-116, and MDA-MB-231 cancer cell lines.

| pIC50 | SMILES |
| --- | --- |
| < 4.00 | COc1cc(C(=O)c2cc3c(ccc4ccccc43)[nH]2)ccc1OCc1ccccc1 [ACT-PFK-109, (3H-Benzo[e]indol-2-yl)-(4-benzyloxy-3-methoxy-phenyl)-methanone] |
| 7.52 | COc1cccc(C(=O)c2cc3c(cc(F)c4ccccc43)[nH]2)c1 [ACT-PFK-116, (5-Fluoro-3H-benzo[e]indol-2-yl)-(3-methoxy-phenyl)-methanone] |

system: Jurkat; assay: as above; format: cell-based; settings: Homo sapiens, Jurkat
Description: as §1

| pIC50 | SMILES |
| --- | --- |
| < 4.00 | COc1cc(C(=O)c2cc3c(ccc4ccccc43)[nH]2)ccc1OCc1ccccc1 [ACT-PFK-109, (3H-Benzo[e]indol-2-yl)-(4-benzyloxy-3-methoxy-phenyl)-methanone] |
| 6.90 | COc1cccc(C(=O)c2cc3c(cc(F)c4ccccc43)[nH]2)c1 [ACT-PFK-116, (5-Fluoro-3H-benzo[e]indol-2-yl)-(3-methoxy-phenyl)-methanone] |

system: HCT-116; assay: as above; format: cell-based; settings: Homo sapiens, HCT-116
Description: as §1

| pIC50 | SMILES |
| --- | --- |
| < 4.00 | COc1cc(C(=O)c2cc3c(ccc4ccccc43)[nH]2)ccc1OCc1ccccc1 [ACT-PFK-109, (3H-Benzo[e]indol-2-yl)-(4-benzyloxy-3-methoxy-phenyl)-methanone] |
| 6.63 | COc1cccc(C(=O)c2cc3c(cc(F)c4ccccc43)[nH]2)c1 [ACT-PFK-116, (5-Fluoro-3H-benzo[e]indol-2-yl)-(3-methoxy-phenyl)-methanone] |

system: MDA-MB-231; assay: as above; format: cell-based; settings: Homo sapiens
Description: as §1

| pIC50 | SMILES |
| --- | --- |
| < 4.00 | COc1cc(C(=O)c2cc3c(ccc4ccccc43)[nH]2)ccc1OCc1ccccc1 [ACT-PFK-109, (3H-Benzo[e]indol-2-yl)-(4-benzyloxy-3-methoxy-phenyl)-methanone] |
| 6.25 | COc1cccc(C(=O)c2cc3c(cc(F)c4ccccc43)[nH]2)c1 [ACT-PFK-116, (5-Fluoro-3H-benzo[e]indol-2-yl)-(3-methoxy-phenyl)-methanone] |

system: NCI-H82; assay: as above; format: cell-based; settings: Homo sapiens, NCI-H82, read-out: IC50 NCl-H82
Description: as §1

| pIC50 | SMILES |
| --- | --- |
| < 4.00 | COc1cc(C(=O)c2cc3c(ccc4ccccc43)[nH]2)ccc1OCc1ccccc1 [ACT-PFK-109, (3H-Benzo[e]indol-2-yl)-(4-benzyloxy-3-methoxy-phenyl)-methanone] |
| 6.69 | COc1cccc(C(=O)c2cc3c(cc(F)c4ccccc43)[nH]2)c1 [ACT-PFK-116, (5-Fluoro-3H-benzo[e]indol-2-yl)-(3-methoxy-phenyl)-methanone] |

system: Calu-6; assay: as above; format: cell-based; settings: Homo sapiens, Calu-6
Description: as §1

| pIC50 | SMILES |
| --- | --- |
| 4.19 | COc1cc(C(=O)c2cc3c(ccc4ccccc43)[nH]2)ccc1OCc1ccccc1 [ACT-PFK-109, (3H-Benzo[e]indol-2-yl)-(4-benzyloxy-3-methoxy-phenyl)-methanone] |
| 7.10 | COc1cccc(C(=O)c2cc3c(cc(F)c4ccccc43)[nH]2)c1 [ACT-PFK-116, (5-Fluoro-3H-benzo[e]indol-2-yl)-(3-methoxy-phenyl)-methanone] |

system: not listed separately; assay: Microsomal stability in human liver microsomes; format: in vitro ADME; settings: 0 min
Description: Microsomal stability in vitro in different biologic media (liver microsomes, S9 fraction, hepatocytes) and species is ascertained to evaluate the rate at which a compound undergoes metabolism in the experimental in vitro conditions. Results for some compounds of the invention after a 60 minutes incubation period in human liver microsomes are shown in the Table 6 below. […] Experimental conditions are briefly described here: the stability in human liver microsomes of several compounds was done over […] at 37° C. using pooled mixed gender human liver microsomes. These liver microsomes were prepared at 1.0 mg/ml of microsomal protein in a 100 mM potassium phosphate pH 7.4 buffer with 1 mM NADPH. The media was incubated at 37° C. with the compound in solution in DMSO. The concentration of the compound was followed by LC/MS-MS as a function of time. Samples were assayed at t=0, 15, 30, and 60 minutes. Testosterone was used as a positive control. The same experiment was performed with mouse, rat or dog liver microsomes instead of human liver microsomes.

| HLM, Mean metabolized (%) | SMILES |
| --- | --- |
| 0.0% | COc1cccc(C(=O)c2cc3c(cc(F)c4ccccc43)[nH]2)c1 [ACT-PFK-116, (5-Fluoro-3H-benzo[e]indol-2-yl)-(3-methoxy-phenyl)-methanone] |

same assay, conditions: 60 min incubation, 1.0 mg/ml microsomal protein, 1 mM NADPH, 37° C.

| HLM, Mean metabolized (%) | SMILES |
| --- | --- |
| 45.8% | COc1cccc(C(=O)c2cc3c(cc(F)c4ccccc43)[nH]2)c1 [ACT-PFK-116, (5-Fluoro-3H-benzo[e]indol-2-yl)-(3-methoxy-phenyl)-methanone] |

system: Jurkat cells; assay: Inhibition of 14C-2-deoxyglucose uptake; format: cell-based; settings: Homo sapiens, 3 hours
Description: Inhibition of PFKFB3 results in inhibiting glycolysis. Several feedback or feedforward activation and inhibition mechanisms exist so that, by a feedback mechanism, inhibiting the activity of PFKFB3 may inhibit glucose uptake by cells. An assay was developed to determine if there was inhibition of glucose uptake following exposure to the compounds on the invention. Briefly, Jurkat cells were plated at 1×10^5/mL in RPM′ 1640 supplemented with 10% fetal bovine serum and 50 μg/mL gentamicin sulfate. Cells were immediately treated with vehicle or 5 μmol/L of the compound of the invention for 3 hours and subsequently placed in glucose-free RPMI 1640 for 30 min. ^14C-2-deoxyglucose (0.25 μCi/mL; Perkin Elmer) was added for an additional 60 min and cells were then washed three with ice-cold RPMI 1640 containing no glucose. Cell lysates were collected in 500 μL of 0.1% SDS, and scintillation counts (counts/min) were measured on 400 μL of lysate. Counts were normalized to protein concentration.

| SMILES | inhibition at 5 µM |
| --- | --- |
| COc1cc(C(=O)c2cc3c(ccc4ccccc43)[nH]2)ccc1OCc1ccccc1 [ACT-PFK-109, (3H-Benzo[e]indol-2-yl)-(4-benzyloxy-3-methoxy-phenyl)-methanone] | 42% |
| COc1cccc(C(=O)c2cc3c(cc(F)c4ccccc43)[nH]2)c1 [ACT-PFK-116, (5-Fluoro-3H-benzo[e]indol-2-yl)-(3-methoxy-phenyl)-methanone] | 0% |

molecular target: T1, PFKFB3 (Homo sapiens, UniProt Q16875); assay: Inhibition of recombinant PFKFB3 kinase activity (ADP Glow assay); format: biochemical; settings: 250 nM analog concentration; read-out: % Inhibition of PFKFB3 Enzymatic Activity
T1 construct: GST
T1 sequence (Q16875 whole entry, species assumed): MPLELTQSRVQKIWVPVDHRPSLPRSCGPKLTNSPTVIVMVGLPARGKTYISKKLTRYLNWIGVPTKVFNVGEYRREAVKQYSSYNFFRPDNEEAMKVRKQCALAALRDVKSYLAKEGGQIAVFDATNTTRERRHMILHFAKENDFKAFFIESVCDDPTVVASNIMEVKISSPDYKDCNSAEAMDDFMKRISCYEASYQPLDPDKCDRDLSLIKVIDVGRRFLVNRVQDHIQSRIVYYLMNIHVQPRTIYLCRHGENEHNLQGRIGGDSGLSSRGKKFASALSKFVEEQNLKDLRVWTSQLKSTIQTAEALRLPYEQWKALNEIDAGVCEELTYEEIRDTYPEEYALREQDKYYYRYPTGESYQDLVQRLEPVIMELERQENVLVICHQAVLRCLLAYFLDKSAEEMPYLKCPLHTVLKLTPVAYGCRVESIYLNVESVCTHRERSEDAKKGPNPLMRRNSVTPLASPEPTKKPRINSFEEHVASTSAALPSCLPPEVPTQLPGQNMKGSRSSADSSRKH
Description: PFKFB3 was prepared by expression in E. coli and purified by GST column and column chromatography. […] The recombinant protein was pure and active as determined by the results of a kinase activity assay commercially available (such as ADP Glow® assay, […]). The same assay was used to determine the inhibition of the protein and the results are shown in Table 5 below (IC50 values or percent inhibition at a fixed concentration). Results confirmed that the compounds of the invention have low nanomolar IC50 values, interacting with PFKFB3 and inhibiting its enzymatic activity.

| inhibition at 0.25 µM | SMILES |
| --- | --- |
| 34.2% | COc1cccc(C(=O)c2cc3c(cc(F)c4ccccc43)[nH]2)c1 [ACT-PFK-116, (5-Fluoro-3H-benzo[e]indol-2-yl)-(3-methoxy-phenyl)-methanone] |

system: not listed separately; assay: Solubility in solvents and excipients, 1 hour at room temperature, HPLC; format: physicochemical; settings: aqueous with cosolvent or surfactant or cyclodextrin, thermodynamic from solid; Cre:EtOH:Saline 5:5:90 mixture, 1 hour at room temperature; read-out: Solubility Cre:EtOH:Saline
Description: Chemical properties of the compounds of the invention were investigated, including the solubility in several solvents and pharmaceutically accepted excipients. […] Briefly, selected compounds of the invention are dissolved in a small volume of the solvents/excipients of interest at room temperature over 1 hour in typically 1 ml and the concentration is measured by HPLC after filtration.

| solubility at 1 h | SMILES |
| --- | --- |
| 700 µg/mL (≈ 2.19 mM) | COc1cccc(C(=O)c2cc3c(cc(F)c4ccccc43)[nH]2)c1 [ACT-PFK-116, (5-Fluoro-3H-benzo[e]indol-2-yl)-(3-methoxy-phenyl)-methanone] |

same assay, conditions: ethanol, organic solvent or mixture, thermodynamic from solid; EtOH, 1 hour at room temperature; read-out: Solubility EtOH

| solubility at 1 h | SMILES |
| --- | --- |
| 1300 µg/mL (≈ 4.07 mM) | COc1cccc(C(=O)c2cc3c(cc(F)c4ccccc43)[nH]2)c1 [ACT-PFK-116, (5-Fluoro-3H-benzo[e]indol-2-yl)-(3-methoxy-phenyl)-methanone] |

same assay, conditions: organic solvent or mixture, thermodynamic from solid; 1:1 cremophor EL-P:ethanol mixture, 1 hour at room temperature; read-out: Solubility Cre:EtOH

| solubility at 1 h | SMILES |
| --- | --- |
| 8600 µg/mL (≈ 26.9 mM) | COc1cccc(C(=O)c2cc3c(cc(F)c4ccccc43)[nH]2)c1 [ACT-PFK-116, (5-Fluoro-3H-benzo[e]indol-2-yl)-(3-methoxy-phenyl)-methanone] |

same assay, conditions: organic solvent or mixture, thermodynamic from solid; Acetone, 1 hour at room temperature; read-out: Solubility Acetone

| solubility at 1 h | SMILES |
| --- | --- |
| 6200 µg/mL (≈ 19.4 mM) | COc1cccc(C(=O)c2cc3c(cc(F)c4ccccc43)[nH]2)c1 [ACT-PFK-116, (5-Fluoro-3H-benzo[e]indol-2-yl)-(3-methoxy-phenyl)-methanone] |

same assay, conditions: organic solvent or mixture, thermodynamic from solid; Cremophor, 1 hour at room temperature; read-out: Solubility Cremophor

| solubility at 1 h | SMILES |
| --- | --- |
| 14400 µg/mL (≈ 45.1 mM) | COc1cccc(C(=O)c2cc3c(cc(F)c4ccccc43)[nH]2)c1 [ACT-PFK-116, (5-Fluoro-3H-benzo[e]indol-2-yl)-(3-methoxy-phenyl)-methanone] |

same assay, conditions: organic solvent or mixture, thermodynamic from solid; DCM, 1 hour at room temperature; read-out: Solubility DCM

| solubility at 1 h | SMILES |
| --- | --- |
| 6000 µg/mL (≈ 18.8 mM) | COc1cccc(C(=O)c2cc3c(cc(F)c4ccccc43)[nH]2)c1 [ACT-PFK-116, (5-Fluoro-3H-benzo[e]indol-2-yl)-(3-methoxy-phenyl)-methanone] |

same assay, conditions: organic solvent or mixture, thermodynamic from solid; Tween 80, 1 hour at room temperature; read-out: Solubility Tween 80

| solubility at 1 h | SMILES |
| --- | --- |
| 15500 µg/mL (≈ 48.5 mM) | COc1cccc(C(=O)c2cc3c(cc(F)c4ccccc43)[nH]2)c1 [ACT-PFK-116, (5-Fluoro-3H-benzo[e]indol-2-yl)-(3-methoxy-phenyl)-methanone] |

same assay, conditions: organic solvent or mixture, thermodynamic from solid; Tween80:EtOH 6:4 mixture, 1 hour at room temperature; read-out: Solubility Twee80:EtOH

| solubility at 1 h | SMILES |
| --- | --- |
| 10200 µg/mL (≈ 31.9 mM) | COc1cccc(C(=O)c2cc3c(cc(F)c4ccccc43)[nH]2)c1 [ACT-PFK-116, (5-Fluoro-3H-benzo[e]indol-2-yl)-(3-methoxy-phenyl)-methanone] |
